US20070254312A1, “Protein Kinase Inhibitors and Methods for Identiying Same” (priority 2004, published 2007)
Starred links: 1 amine or outer side, 2 acyl side, 3 side chain; linkers in the order of their positions; H or OH if unused. Non-standard residues stand in square brackets, D forms with d. Residues, ends and D or L forms follow the SMILES beside them. *: point of attachment. Benzoyl(4-(pyrrol-1-yl)) = O=C(c1ccc(-n2cccc2)cc1)*; Phenylacetyl(3,4-Cl2) = O=C(Cc1ccc(Cl)c(Cl)c1)*; Cysteamide = C(CS[*:3])N[*:1]; Dap = NC[C@H](N)C(=O)O

Target: PKCα (Homo sapiens, UniProt P17252)
Assay: Protein Kinase Cα radioactive assay, peptide substrate Ac-Ser-Phe-Arg-Arg-Arg-NH2 (Example 1)
Assay type: biochemical
Set-up: purchased Pan Vera
Conditions: versus variable peptide substrate
Protocol: Protein Kinase C Assay (general). The peptides […] (for PKC α, β and γ) and acetyl-[…] (for PKC ε and ζ) were used as substrates. […] Total reaction volume was 50 μL. […] Following an additional 5 min incubation at ambient temperature, 75 μL from each reaction well was transferred into each well of a Unifilter (P81 cellulose phosphate paper) assay plate and washed four times with 0.1% phosphoric acid in water. […] IC50 values were calculated using GraFit (Erithacus Software Limited) and Ki values were calculated using Enzyme Kinetics, SigmaPlot (SPSS Inc.) […] An analogous protocol was employed for peptide 4 versus variable [[…]]. […] An analogous protocol was employed for peptide 4 versus variable [ATP]. Protein Kinase Cα Assay (Ki determination for peptide 6 versus variable […] substrate). […] The reaction was initiated as described above. […] Following an additional 5 min incubation at ambient temperature, 75 μL from each reaction well was transferred into each well of a Unifilter (P81 cellulose phosphate paper) assay plate and washed four times with 0.1% phosphoric acid in water. […] IC50 values were calculated using GraFit (Erithacus Software Limited) and Ki values were calculated using Enzyme Kinetics, SigmaPlot (SPSS Inc.)

- Ki: 800 pM
Structure (SMILES): CC(C)C[C@H](NC(=O)[C@H](C)NC(=O)CNC(=O)[C@H](CCCNC(=N)N)NC(=O)[C@H](CCCNC(=N)N)NC(=O)[C@H](C)NC(=O)Cc1ccc(Cl)c(Cl)c1)C(=O)N[C@@H](CCCNC(=N)N)C(=O)N[C@@H](CNC(=O)c1ccc(-n2cccc2)cc1)C(=O)N[C@@H](C)C(=O)NCCS [Compound 6] ({Phenylacetyl(3,4-Cl2)}-ARRGALR[Dap](Benzoyl(4-(pyrrol-1-yl)))A-Cysteamide)
